# Results from ChEMBL document CHEMBL1147193, “New 5-substituted thiazolo[3,2-b][1,2,4]triazol-6-ones: synthesis and anticancer evaluation” (2007).
# What was measured:
# Format in all cases: functional
# [1] = system: OVCAR-3; assay: Growth inhibition of human OVCAR-3 cells after 48 hrs by SRB protein assay; settings: OVCAR-3, 48 h
# [2] = system: OVCAR-5; assay: Growth inhibition of human OVCAR5 cells after 48 hrs by SRB protein assay; settings: OVCAR-5, 48 h
# [3] = system: OVCAR-8; assay: Growth inhibition of human OVCAR8 cells after 48 hrs by SRB protein assay; settings: OVCAR-8, 48 h
# [4] = system: SK-OV-3; assay: Growth inhibition of human SK-OV-3 cells after 48 hrs by SRB protein assay; settings: SK-OV-3, 48 h
# [5] = system: ACHN; assay: Growth inhibition of human ACHN cells after 48 hrs by SRB protein assay
# [6] = system: CAKI-1; assay: Growth inhibition of human CAKI1 cells after 48 hrs by SRB protein assay; settings: CAKI-1, 48 h
# [7] = system: BT-549; assay: Growth inhibition of human BT549 cells after 48 hrs by SRB protein assay; settings: BT-549, 48 h
# [8] = system: Hs-578T; assay: Growth inhibition of human HS578T cells after 48 hrs by SRB protein assay
# [9] = system: RPMI-8226; assay: Growth inhibition of human RPMI8226 cells after 48 hrs by SRB protein assay; settings: RPMI-8226, 48 h
# [10] = system: NCI-H460; assay: Anticancer activity against human NCI-H460 cells assessed as growth of cells at 100 uM relative to untreated cells
# [11] = system: SF-268; assay: Anticancer activity against human SF268 cells assessed as growth of cells at 100 uM relative to untreated cells
# [12] = system: MCF7; assay: Anticancer activity against human MCF7 cells assessed as growth of cells at 100 uM relative to untreated cells
# [13] = system: K562; assay: Growth inhibition of human K562 cells after 48 hrs by SRB protein assay; settings: K562, 48 h
# [14] = system: MOLT-4; assay: Growth inhibition of human MOLT4 cells after 48 hrs by SRB protein assay; settings: MOLT-4, 48 h
# [15] = system: EKVX; assay: Growth inhibition of human EKVX cells after 48 hrs by SRB protein assay
# [16] = system: HOP-62; assay: Growth inhibition of human HOP62 cells after 48 hrs by SRB protein assay; settings: HOP-62, 48 h
# [17] = system: HOP-92; assay: Growth inhibition of human HOP92 cells after 48 hrs by SRB protein assay; settings: HOP-92, 48 h
# [18] = system: NCI-H226; assay: Growth inhibition of human NCI-H226 cells after 48 hrs by SRB protein assay; settings: NCI-H226, 48 h
# [19] = system: NCI-H322M; assay: Growth inhibition of human NCI-H322M cells after 48 hrs by SRB protein assay
# [20] = system: NCI-H460; assay: Growth inhibition of human NCI-H460 cells after 48 hrs by SRB protein assay; settings: NCI-H460, 48 h
# [21] = system: NCI-H522; assay: Growth inhibition of human NCI-H522 cells after 48 hrs by SRB protein assay; settings: NCI-H522, 48 h
# [22] = system: HCC 2998; assay: Growth inhibition of human HCC2998 cells after 48 hrs by SRB protein assay; settings: HCC 2998, 48 h
# [23] = system: HCT-116; assay: Growth inhibition of human HCT116 cells after 48 hrs by SRB protein assay; settings: HCT-116, 48 h
# [24] = system: HCT-15; assay: Growth inhibition of human HCT15 cells after 48 hrs by SRB protein assay; settings: HCT-15, 48 h
# [25] = system: HT-29; assay: Growth inhibition of human HT29 cells after 48 hrs by SRB protein assay; settings: HT-29, 48 h
# [26] = system: U-251; assay: Growth inhibition of human U251 cells after 48 hrs by SRB protein assay; settings: U-251, 48 h
# [27] = Growth inhibition of human MALME 3M cells after 48 hrs by SRB protein assay
# [28] = system: M14; assay: Growth inhibition of human M14 cells after 48 hrs by SRB protein assay; settings: M14, 48 h
# [29] = system: SK-MEL-28; assay: Growth inhibition of human SK-MEL-28 cells after 48 hrs by SRB protein assay; settings: SK-MEL-28, 48 h
# [30] = system: SK-MEL-5; assay: Growth inhibition of human SK-MEL-5 cells after 48 hrs by SRB protein assay; settings: SK-MEL-5, 48 h
# [31] = system: UACC-257; assay: Growth inhibition of human UACC257 cells after 48 hrs by SRB protein assay; settings: UACC-257, 48 h
# [32] = system: UACC-62; assay: Growth inhibition of human UACC62 cells after 48 hrs by SRB protein assay; settings: UACC-62, 48 h
# [33] = system: RXF 393; assay: Growth inhibition of human RXF393 cells after 48 hrs by SRB protein assay; settings: RXF 393, 48 h
# [34] = system: TK-10; assay: Growth inhibition of human TK10 cells after 48 hrs by SRB protein assay; settings: TK-10, 48 h
# [35] = system: UO-31; assay: Growth inhibition of human UO31 cells after 48 hrs by SRB protein assay; settings: UO-31, 48 h
# [36] = system: MCF7; assay: Growth inhibition of human MCF7 cells after 48 hrs by SRB protein assay; settings: MCF7, 48 h
# [37] = system: MDA-MB-435; assay: Growth inhibition of human MDA-MB-435 cells after 48 hrs by SRB protein assay; settings: MDA-MB-435, 48 h
# [38] = system: T47D; assay: Growth inhibition of human T47D cells after 48 hrs by SRB protein assay
# [39] = Growth inhibition of human MDA-MB-231/ATCC cells after 48 hrs by SRB protein assay; settings: MDA-MB-231, 48 h
compound,measurement,setting,value
O=c1/c(=C/c2ccc(F)cc2)sc2ncnn12,GI50,[1],37.2 µM
same,TGI,[1]; read-out: Log TGI (converted),> 100 µM
same,GI50,[2],55 µM
same,TGI,[2]; read-out: Log TGI (converted),> 100 µM
same,GI50,[3],44.7 µM
same,TGI,[3]; read-out: Log TGI (converted),> 100 µM
same,GI50,[4],> 100 µM
same,TGI,[4]; read-out: Log TGI (converted),> 100 µM
same,GI50,[5],81.3 µM
same,TGI,[5]; read-out: Log TGI (converted),> 100 µM
same,GI50,[6],69.2 µM
same,TGI,[6]; read-out: Log TGI (converted),> 100 µM
same,GI50,[7],42.7 µM
same,TGI,[7]; read-out: Log TGI (converted),100 µM
same,GI50,[8],69.2 µM
same,TGI,[8]; read-out: Log TGI (converted),> 100 µM
same,GI50,[9],26.3 µM
same,TGI,[9]; read-out: Log TGI (converted),79.4 µM
same,Activity,[10],13%
same,Activity,[11],70%
same,Activity,[12],77%
same,GI50,[13],38.9 µM
same,TGI,[13]; read-out: Log TGI (converted),> 100 µM
same,GI50,[14],38.9 µM
same,TGI,[14]; read-out: Log TGI (converted),> 100 µM
same,GI50,[15],83.2 µM
same,TGI,[15]; read-out: Log TGI (converted),> 100 µM
same,GI50,[16],70.8 µM
same,TGI,[16]; read-out: Log TGI (converted),> 100 µM
same,GI50,[17],47.9 µM
same,TGI,[17]; read-out: Log TGI (converted),> 100 µM
same,GI50,[18],> 100 µM
same,TGI,[18]; read-out: Log TGI (converted),> 100 µM
same,GI50,[19],> 100 µM
same,TGI,[19]; read-out: Log TGI (converted),> 100 µM
same,GI50,[20],61.7 µM
same,TGI,[20]; read-out: Log TGI (converted),> 100 µM
same,GI50,[21],50.1 µM
same,TGI,[21]; read-out: Log TGI (converted),> 100 µM
same,GI50,[22],63.1 µM
same,TGI,[22]; read-out: Log TGI (converted),> 100 µM
same,GI50,[23],33.9 µM
same,TGI,[23]; read-out: Log TGI (converted),> 100 µM
same,GI50,[24],63.1 µM
same,TGI,[24]; read-out: Log TGI (converted),> 100 µM
same,GI50,[25],45.7 µM
same,TGI,[25]; read-out: Log TGI (converted),> 100 µM
same,GI50,[26],60.3 µM
same,TGI,[26]; read-out: Log TGI (converted),> 100 µM
same,GI50,[27],> 100 µM
same,TGI,[27]; read-out: Log TGI (converted),> 100 µM
same,GI50,[28],28.8 µM
same,TGI,[28]; read-out: Log TGI (converted),> 100 µM
same,GI50,[29],52.5 µM
same,TGI,[29]; read-out: Log TGI (converted),> 100 µM
same,GI50,[30],41.7 µM
same,TGI,[30]; read-out: Log TGI (converted),> 100 µM
same,GI50,[31],95.5 µM
same,TGI,[31]; read-out: Log TGI (converted),> 100 µM
same,GI50,[32],66.1 µM
same,TGI,[32]; read-out: Log TGI (converted),> 100 µM
same,GI50,[33],46.8 µM
same,TGI,[33]; read-out: Log TGI (converted),100 µM
same,GI50,[34],> 100 µM
same,TGI,[34]; read-out: Log TGI (converted),> 100 µM
same,GI50,[35],69.2 µM
same,TGI,[35]; read-out: Log TGI (converted),> 100 µM
same,GI50,[36],32.4 µM
same,TGI,[36]; read-out: Log TGI (converted),> 100 µM
same,GI50,[37],37.2 µM
same,TGI,[37]; read-out: Log TGI (converted),> 100 µM
same,GI50,[38],91.2 µM
same,TGI,[38]; read-out: Log TGI (converted),> 100 µM
same,GI50,[39],> 100 µM
same,TGI,[39]; read-out: Log TGI (converted),> 100 µM
